Test results as given in patent US20250290928A1, “METHOD, KIT AND DEVICE FOR DETECTING EXTRACELLULAR VESICLES” (priority 2022, published 2025).
Primed or numbered codes have the meaning given here. *: point of attachment. Dabcyl′ = 4-((4-(dimethylamino)phenyl)azo)benzoic acid, CN(C)c1ccc(/N=N/c2ccc(C(=O)*)cc2)cc1; 5FAM = O=C1OC2(c3ccc(O)cc3Oc3cc(O)ccc32)c2ccc(C(=O)*)cc21

Experiments:
Assay type in all cases: biochemical, Human
[1] = tested on: ADAM in the MDA-MB-231-derived extracellular vesicles; assay: Detection of ADAM activity of MDA-MB-231-derived extracellular vesicles with 96-well plate; settings: Example 39, EV 3.3 μg/mL, reporter 5 μM, buffer (4)
Experimental: (§1) The MMP14 activity was evaluated with a 96-well plate (manufactured by Thermo Fisher Scientific Inc., model number: 137101). A fluorescence intensity was measured with a fluorescence plate reader (Synergy MX, manufactured by BioTek Instruments, Inc.) at […] every 5 min for 1 hour. For measurement wavelengths, an excitation wavelength of 485±20 nm and a fluorescence wavelength of 528±20 nm were used.
In addition, for detection of ADAM activity, 1 mM EPDAB010 or PEPDAB014 was diluted with the buffer (4) to prepare a 10 μM ADAM detection solution. In addition, for detection of Cathepsin D activity, 1 mM CathD was diluted with the buffer (4) to prepare a 10 μM Cathepsin D detection solution.
50 μL of the ADAM detection solution or the Cathepsin D detection solution was added to 50 μL of each of the samples, a reaction was performed at 30° C., and activity was evaluated.

[2] = tested on: ADAM in the MDA-MB-231-derived extracellular vesicles; assay: Digital detection of MDA-MB-231-derived extracellular vesicles through ADAM activity in wells; settings: for Extracellular vesicle concentration: at a concentration of x1, 50 fL; for Expected value λ / Number of positives / Positive ratio: Example 40, EV 2 μg/mL, reporter 5 μM, 30° C.
Experimental: The concentration of the solution is 4 μg/mL.
50 μL of the ADAM or Cathepsin D detection solution was added to 50 μL of the sample to provide a reaction solution for wells.

[3] = tested on: MMP in the A549-derived extracellular vesicles; assay: Evaluation of MMP activity of A549-derived extracellular vesicles with 96-well plate (SensoLyte 520 MMP Substrate Sampler Kit); settings: Example 34, EV 4 μg/mL, reporter 5 μM, buffer (4)
Experimental: as §1
(§2) 50 μL of the MMP detection solution was added to 50 μL of each of the samples, a reaction was performed at 30° C., and MMP activity was evaluated.

[4] = tested on: MMP in the MDA-MB-231-derived extracellular vesicles; assay: Evaluation of MMP activity of MDA-MB-231-derived extracellular vesicles with 96-well plate (SensoLyte 520 MMP Substrate Sampler Kit); settings: for Fluorescence change after 1 hour of reaction at 30° C.: Example 34, EV 4 μg/mL, reporter 5 μM, buffer (4); for Fluorescence change after 2 hours of reaction at 30° C.: MP, EV 3.3 μg/mL
Experimental: as §2
(§3) 50 μL of each of the MMP detection solutions was added to 50 μL of each of the samples, a reaction was performed at 30° C., and MMP activity was evaluated.

[5] = tested on: MMP in the MDA-MB-231-derived extracellular vesicles; assay: Digital detection of MDA-MB-231-derived extracellular vesicles through MMP activity in wells (SB substrates); settings: for Expected value λ / Number of positives / Positive ratio: 6 h; for Extracellular vesicle concentration / Expected value λ (×1): Example 35, 6 h; for Extracellular vesicle concentration: at a concentration of x1, 50 fL; for Expected value λ (×1): from power approximation equation
Experimental: The concentration of the solution is 10 μg/mL. […] The solution was further diluted 2-fold to prepare a standard sample at a concentration of x1/4, further diluted 3-fold to prepare a standard sample at a concentration of x1/12, and further diluted 3-fold to prepare a standard sample at a concentration of x1/36. Thus, the standard samples with four concentrations were prepared.
In addition, 1 mM Alexa Fluor 647 was used as a standard fluorescent substance, and each of the MMP14 detection solutions contained the standard fluorescent substance at a final concentration of 2 μM.
as §3

[6] = tested on: MMP in the A549-derived extracellular vesicles; assay: Digital detection of A549-derived extracellular vesicles through MMP activity in wells (SB substrates); settings: for Extracellular vesicle concentration: at a concentration of x1, 50 fL; for Expected value λ / Number of positives / Positive ratio: Example 36, EV 5 μg/mL, reporter 5 μM, 30° C.
Experimental: The concentration of the solution is 10 μg/mL.
50 μL of each of the MMP detection solutions was added to 50 μL of the sample to provide a reaction solution for wells.

[7] = 1.25 μM with 1.25 μM Custom #2T
[8] = Example 35, 30° C., EV 0 (free of extracellular vesicles, pseudopositive)
[9] = Example 35, 30° C., EV 1/4 a.u.
[10] = Example 35, 30° C., EV 1/12 a.u.
[11] = Example 35, 30° C., EV 1/36 a.u.
[12] = Example 35, reporter 5 μM, 30° C., EV 1/2 a.u. (5 μg/mL in reaction solution)

Substance | Fluorescence change after 1 hour of reaction at 30° C. [3] | Fluorescence change after 1 hour of reaction at 30° C. [4] | Fluorescence change after 2 hours of reaction at 30° C. [4, 7] | Fluorescence change after 2 hours of reaction at 30° C. ([4]; 5 μM with 5 μM Custom #2T) | Expected value λ [5, 8] | Number of positives [5, 8] | Positive ratio [5, 8] | Expected value λ [5, 9] | Number of positives [5, 9] | Positive ratio [5, 9] | Expected value λ [5, 10] | Number of positives [5, 10] | Positive ratio [5, 10] | Expected value λ [5, 11] | Number of positives [5, 11] | Positive ratio [5, 11] | Extracellular vesicle concentration [5] [mL⁻¹] | Expected value λ (×1) [5] | Expected value λ [5, 12] | Number of positives [5, 12] | other results
Dabcyl-SPLAQAVRSSK (5FAM)-NH2 ({Dabcyl′}-SPLAQAVRSSK(5FAM)-NH2; SMILES CC(C)C[C@H](NC(=O)[C@@H]1CCCN1C(=O)[C@H](CO)NC(=O)c1ccc(/N=N/c2ccc(N(C)C)cc2)cc1)C(=O)N[C@@H](C)C(=O)N[C@@H](CCC(N)=O)C(=O)N[C@@H](C)C(=O)N[C@H](C(=O)N[C@@H](CCCNC(=N)N)C(=O)N[C@@H](CO)C(=O)N[C@@H](CO)C(=O)N[C@@H](CCCCNC(=O)c1ccc2c(c1)C(=O)OC21c2ccc(O)cc2Oc2cc(O)ccc21)C(N)=O)C(C)C) [PEPDAB010] |  |  |  |  |  |  |  |  |  |  |  |  |  |  |  |  |  |  |  |  | Fluorescence change after 2 hours of reaction at 30° C. [1]: 74,285 ΔRFU; Expected value λ (×1) ([2]; Example 40, 4 hr): 0.4984; Extracellular vesicle concentration ([2]; Example 40, 4 hr): 9.968e+09 mL⁻¹; Expected value λ (×1) ([2]; Example 40, 24 hr): 0.8509; Extracellular vesicle concentration ([2]; Example 40, 24 hr): 1.702e+10 mL⁻¹; Expected value λ ([2]; 4 hr): 0.09968; Number of positives ([2]; 4 hr): 2,664; Positive ratio ([2]; 4 hr): 0.09487; Expected value λ ([2]; 24 hr): 0.1702; Number of positives ([2]; 24 hr): 4,394; Positive ratio ([2]; 24 hr): 0.1565
QXL520-Arg-Pro-Leu-Ala-Leu-Trp-Arg-Lys(5-FAM)-NH2 (QXL520-RPLALWRK(5FAM)-NH2) [SB9] | 1,775 ΔRFU | 62,330 ΔRFU | 39,228 ΔRFU | 40,247 ΔRFU | 3.56E−05 | 1 | 3.56E−05 | 0.2881 | 7,010 | 0.2503 | 0.01591 | 442 | 0.01579 | 0.01251 | 349 | 0.01243 | 4.7e+10 | 2.3593 | 0.9949 | 17,697 | Positive ratio [5, 12]: 0.6302; Expected value λ (×1) ([6]; Example 36, 4 hr): 0.1169; Extracellular vesicle concentration ([6]; Example 36, 4 hr): 2.338e+09 mL⁻¹; Expected value λ (×1) ([6]; Example 36, 24 hr): 0.01093; Extracellular vesicle concentration ([6]; Example 36, 24 hr): 2.185e+08 mL⁻¹; Expected value λ ([6]; 4 hr): 0.05844; Number of positives ([6]; 4 hr): 1,594; Positive ratio ([6]; 4 hr): 0.05677; Expected value λ ([6]; 24 hr): 0.00546; Number of positives ([6]; 24 hr): 153; Positive ratio ([6]; 24 hr): 0.00545
QXL520-Pro-Leu-Gly-Met-Trp-Ser-Arg-Lys(5-FAM)-NH2 (QXL520-PLGMWSRK(5FAM)-NH2) [SB6] | 2,043 ΔRFU | 52,130 ΔRFU | 37,893 ΔRFU | 57,158 ΔRFU | 3.57E−05 | 1 | 3.57E−05 | 0.5449 | 11,797 | 0.4201 | 0.09454 | 2,533 | 0.09021 | 0.04778 | 1,310 | 0.04665 | 4.3e+10 | 2.1589 | 1.006 | 17,761 | Positive ratio [5, 12]: 0.6343; Expected value λ (×1) ([6]; Example 36, 4 hr): 0.141; Extracellular vesicle concentration ([6]; Example 36, 4 hr): 2.819e+09 mL⁻¹; Expected value λ (×1) ([6]; Example 36, 24 hr): 0.09817; Extracellular vesicle concentration ([6]; Example 36, 24 hr): 1.963e+09 mL⁻¹; Expected value λ ([6]; 4 hr): 0.07048; Number of positives ([6]; 4 hr): 1,911; Positive ratio ([6]; 4 hr): 0.06806; Expected value λ ([6]; 24 hr): 0.04908; Number of positives ([6]; 24 hr): 1,345; Positive ratio ([6]; 24 hr): 0.0479
Dabcyl-EHADLLAVVAK (5FAM)-NH2 ({Dabcyl′}-EHADLLAVVAK(5FAM)-NH2; SMILES CC(C)C[C@H](NC(=O)[C@H](CC(C)C)NC(=O)[C@H](CC(=O)O)NC(=O)[C@H](C)NC(=O)[C@H](Cc1c[nH]cn1)NC(=O)[C@H](CCC(=O)O)NC(=O)c1ccc(/N=N/c2ccc(N(C)C)cc2)cc1)C(=O)N[C@@H](C)C(=O)N[C@H](C(=O)N[C@H](C(=O)N[C@@H](C)C(=O)N[C@@H](CCCCNC(=O)c1ccc2c(c1)C(=O)OC21c2ccc(O)cc2Oc2cc(O)ccc21)C(N)=O)C(C)C)C(C)C) [PEPDAB014] |  |  |  |  |  |  |  |  |  |  |  |  |  |  |  |  |  |  |  |  | Fluorescence change after 2 hours of reaction at 30° C. [1]: 6,939 ΔRFU; Expected value λ (×1) ([2]; Example 40, 4 hr): 0.2813; Extracellular vesicle concentration ([2]; Example 40, 4 hr): 5.625e+09 mL⁻¹; Expected value λ (×1) ([2]; Example 40, 24 hr): 0.4087; Extracellular vesicle concentration ([2]; Example 40, 24 hr): 8.174e+09 mL⁻¹; Expected value λ ([2]; 4 hr): 0.05625; Number of positives ([2]; 4 hr): 1,536; Positive ratio ([2]; 4 hr): 0.0547; Expected value λ ([2]; 24 hr): 0.08174; Number of positives ([2]; 24 hr): 2,204; Positive ratio ([2]; 24 hr): 0.07849
QXL520-Pro-Tyr-Ala-Tyr-Trp-Met-Arg-Lys(5-FAM)-NH2 (QXL520-PYAYWMRK(5FAM)-NH2) [SB7] | 1,228 ΔRFU | 39,031 ΔRFU | 28,167 ΔRFU | 32,014 ΔRFU | 0.000107 | 3 | 0.000107 | 0.3689 | 8,663 | 0.3085 | 0.03574 | 986 | 0.03511 | 0.01933 | 536 | 0.01914 | 6.8e+10 | 3.4196 | 1.56 | 22,181 | Positive ratio [5, 12]: 0.7899; Expected value λ (×1) ([6]; Example 36, 4 hr): 0.02833; Extracellular vesicle concentration ([6]; Example 36, 4 hr): 5.667e+08 mL⁻¹; Expected value λ (×1) ([6]; Example 36, 24 hr): 0.00264; Extracellular vesicle concentration ([6]; Example 36, 24 hr): 5.274e+07 mL⁻¹; Expected value λ ([6]; 4 hr): 0.01417; Number of positives ([6]; 4 hr): 395; Positive ratio ([6]; 4 hr): 0.01407; Expected value λ ([6]; 24 hr): 0.00132; Number of positives ([6]; 24 hr): 37; Positive ratio ([6]; 24 hr): 0.00132
